# Results reported in patent US12540154B2, “Glucosamine derivative nanoparticle and preparating method and use thereof” (CPC Corporation, TAIWAN, priority 2023, dated 2026).
# Tested on: HaCaT cells
# Experiment: Cell cytotoxicity test (CCK-8)
# Format: cell-based, human
# Conditions: 125-1,000 ppm, 24 hours, CCK-8, FIG. 6
# Experimental: HaCaT cells are seeded into a 96 well plate at 10^5 cells/well. After attachment overnight, remove culture medium. The frozen peptide (KTTKS(SEQ ID NO: 1), CRGDS(SEQ ID NO: 2), and RRRRRR(SEQ ID NO: 3)) and the glucosamine derivative nanoparticles are respectively dissolved in serum-free medium (SFM) again (final concentration 1,000 ppm). Use SFM to carry out serial dilution and get concentrations of 500 ppm, 250 ppm, and 125 ppm. Then add 100 μl samples with different concentrations into the well plate (repeat four times and a group of samples added with SFM used as control group). After being cultured for 24 hours, remove culture medium and add 10 μl CCK-8 and 100 μl PBS into each of the wells. Then react at 37° C. for 2-3 hours and read absorbance at 450 nm. Cell viability is defined as a percentage of the absorbance of the respective test groups relative to the absorbance of the control group while the cell viability of the control group is set as 100%.
smiles,measurement,value
N[C@H]1C(O)O[C@H](CO)[C@@H](O)[C@@H]1O (stereo partly shown) [glucosamine],cell viability trend with concentration,reduced a bit along with the increasing glucosamine concentration
